Assay [1] concerns MUC1-fs. Briefly: MUC1-fs subcellular distribution (co-localization IF) in P cells. It counts as cell-based, human.
Procedure: Cell nuclei were first identified using Hoechst staining, and cell number was calculated. Cytoplasmic regions were then detected around each nucleus based on combined channels. The cells from the edge of the field were eliminated from the analysis. For the quantification of protein abundance, the total signal intensity value for each antibody was calculated separately in the cell cytoplasm and the average signal per cell was calculated for each well. For quantitation of MUC1-fs cellular distribution and trafficking, the analysis was performed as described in FIG. 13A using the “spot” identification feature for the detection of MUC1-fs and the different organelles.
Detection of MUC1-fs in P cells at baseline and following secretory pathway perturbations was performed using immunoblot and IF analyses. […] For IF experiments (FIGS. 5B-5D and 13A-13C), P cells were plated in 384-well plates at 12,000 cells/well.
Assay [2] relates to Rhodopsin. Kind of assay: BRD-4780 treatment in Rho-P23H/+ mice, rhodopsin staining of retinal sections. The class given is in vivo, mouse. The note with it: 50 mg/Kg/day oral gavage, 28 days. As to the method:
Rhodopsin intensity was calculated in retinal sections of Rho/+ mice treated with either vehicle or BRD-4780 (FIGS. 21A and 21B), as compared to wild-type mice treated with vehicle alone. In healthy retina, Rhodopsin primarily localized to the outer segment of the photoreceptors (OS, indicated by the arrow in FIG. 21A), instead of localizing around the photoreceptor nuclei in the outer nuclear layer (ONL, indicated by an asterisk in FIG. 21A). Since there is no Rhodopsin-P23H specific antibody, the amount of Rhodopsin staining in the outer nuclear layer was calculated as a measurement of Rhodopsin accumulation in intracellular compartments. The calculated Rhodopsin staining in the ONL was normalized to the nuclear staining, to correct for differences in cell number.
The effect of BRD-4780 on Rhodopsin accumulation in intracellular compartments of mouse retinae were tested in age-matched Rho-P23H/+ and +/+ male mice. […] Animal weight was observed daily to monitor toxicity. On day 28, mice were sacrificed, and eyes were removed for further analysis.

The test system of assay [3] is MUC1-wt. Kind of assay: BRD-4780 treatment in fs/+ knock-in mice, kidney MUC1-wt by IF. The following applies: daily oral gavage, 7 days. The class given is in vivo, mouse. The protocol:
Mice were anesthetized with 3 L/min 02 mixed with 3% isoflurane using the Combi-Vet® system (Rothacher Medical, Bern, Switzerland) for 5 min. Mouse kidneys were removed, sagittally cut to half and rapidly frozen in Tissue-Tek® O.C.T. Compound, Sakura® Finetek (OCT) (25608-930, VWR) using dry ice and 100% ethanol. Five […] sagittal cryosections (CM1950, Leica) were thaw mounted on microscope slides (Fisherbrand™ Superfrost™ Plus, Fisher Scientific) and kept in the cryostat (at −26° C.) for the duration of the sectioning process. Sections were immersion-fixed for 10 min in 4% PFA (15710, Electron Microscopy Sciences), then washed in PBS. The slides were then subjected to antigen retrieval by immersion in 10 mM citric acid buffer (pH=6), for 10 minutes at 95° C. […]
MUC1-fs and MUC1-wt mean intensities were calculated in kidney sections of mice treated with either vehicle or BRD-4780 (FIGS. 4A, 4B and 12A). As MUC1-fs and MUC1-wt levels varied in different kidney regions, and as sections might contain different portions of the different kidney regions, the levels of these proteins were analyzed only in NCC-positive distal convoluted tubules. […] Each fluorescent channel intensity was measured and a threshold was set for the identification of NCC positive cells. MUC1-fs and MUC1-wt levels were then calculated only in the NCC positive cells. […]

The test system of assay [4] is N cells expressing P23H mutant rhodopsin. Briefly: Cell death (DRAQ7) in N cells expressing P23H mutant rhodopsin. The class given is cell-based, human. The following applies: 5 μM, 72 hours. The protocol:
To study apoptosis and cell death in N and P cells, 384 well Cell Carrier Ultra plates (6057308, Perkin Elmer), pre-coated with 0.25 mg/mL Synthemax II SC Substrate (3535, Corning) were used. For UPR branch activation experiments (FIGS. 2B, 9I, 9J and 9G) N and P cells were treated as described in the corresponding figure legends. CellEvent Caspase-3/7 Green Detection Reagent (C10423, Thermo Fisher Scientific®) and DRAQ7 (DR71000, Biostatus) were used at 1:5000 to monitor apoptosis and cell death respectively. Cells were imaged daily during 4 days to monitor viability and image analysis was performed as described below. For rescue experiments, P cells were plated on 96 well Cell Carrier Ultra microplates (6055302, Perkin Elmer) at 30,000 cells/well and cultured for 24 hr. […]
Caspase 3/7 activation and/or DRAQ7 staining were used to calculate the fraction of cells going through apoptosis and/or cell death, respectively. Single cells were first identified using the digital phase contrast channel and cell number was calculated. Fluorescence intensities were then measured and the threshold for Caspase 3/7 and DRAQ7 positive staining was determined. As an output, the fraction of live (neither caspase3/7 nor DRAQ7 signal detected), apoptotic (caspase3/7 positive) or dead cells (DRAQ7 positive) was calculated in each well at a particular time point.

Regarding `CC(C)[C@@H]1[C@H]2CC[C@H](C2)[C@H]1N` (racemic) [BRD-4780, 2-endo-amino-3-exo-isopropylbicyclo[2.2.1]heptane], the MUC1-fs subcellular distribution entry in assay [1] was “reduced in the early secretory compartment”. In assay [2], the “rhodopsin accumulation in intracellular compartments of retina” value is “significantly reduced rhodopsin accumulation in intracellular compartments”. Also, the “MUC1-wt in mouse kidneys” value in assay [3] is reported as “no effect on MUC1-wt”. Further, in assay [4], the “viability of cells expressing P23H mutant” value was “significantly improved”.

The values above are taken from patent publication US12023308B2, “Agents for reversing toxic proteinopathies” (THE BROAD INSTITUTE, INC., priority 2019, dated 2024).
